pIC50: −log10 of the molar value.
Target: human GPR17 short isoform (Homo sapiens (Human), UniProt Q13304)
Assay: GPR17 cAMP assay (hGPR17 cAMP, antagonist mode against EC80 of MDL29,951)
Format: cell-based
Conditions: CHO-K1 cells stably expressing human GPR17 short isoform; EC80 of agonist MDL29,951; forskolin 15 μM
Summary of the method: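 cAMP was read by competitive TR-FRET after a 30 min room-temperature stimulation: antagonists plus EC80 MDL29,951 and 0.5 mM IBMX, followed 5 min later by 15 μM forskolin. Cells were CHO-K1 with stable human GPR17 short isoform in HBSS/HEPES/BSA, pH 7.4; percent activity versus reference antagonist fitted sigmoidally.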

Sequence of human GPR17 short isoform (Q13304 29-367): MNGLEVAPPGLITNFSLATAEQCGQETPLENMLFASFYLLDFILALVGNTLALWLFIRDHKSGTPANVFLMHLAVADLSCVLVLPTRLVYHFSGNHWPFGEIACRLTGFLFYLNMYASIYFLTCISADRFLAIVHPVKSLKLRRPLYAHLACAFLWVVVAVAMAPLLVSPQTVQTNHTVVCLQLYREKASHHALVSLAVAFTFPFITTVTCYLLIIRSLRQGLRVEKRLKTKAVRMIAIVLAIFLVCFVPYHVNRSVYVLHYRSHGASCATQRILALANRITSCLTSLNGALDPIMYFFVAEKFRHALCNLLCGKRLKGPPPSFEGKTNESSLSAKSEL

SMILES | pIC50
COc1nc(NS(=O)(=O)c2c[nH]c3nc(Cl)ccc23)nc(OC)c1OC(F)F [Example 205, 6-chloro-N-[5-(difluoromethoxy)-4,6-dimethoxy-pyrimidin-2-yl]-1H-pyrrolo[2,3-b]pyridine-3-sulfonamide] | 7.31
COc1nc(NS(=O)(=O)c2c[nH]c3nc(Br)ccc23)ncc1OC(F)(F)CF [Example 231, 6-bromo-N-[4-methoxy-5-(1,1,2-trifluoroethoxy)pyrimidin-2-yl]-1H-pyrrolo[2,3-b]pyridine-3-sulfonamide] | 7.68
COc1nc(NS(=O)(=O)c2c[nH]c3nc(C)ccc23)nc(OC)c1OCCF [Example 131, N-[5-(2-fluoroethoxy)-4,6-dimethoxy-pyrimidin-2-yl]-6-methyl-1H-pyrrolo[2,3-b]pyridine-3-sulfonamide] | 6.94
COc1nc(NS(=O)(=O)c2c[nH]c3nc(C)ccc23)nc(OC)c1OCC(F)F [Example 285, N-[5-(2,2-Difluoroethoxy)-4,6-Dimethoxy-Pyrimidin-2-Yl]-6-Methyl-1H-Pyrrolo[2,3-b]Pyridine-3-Sulfonamide] | 6.93
COc1nc(NS(=O)(=O)c2c[nH]c3cc(Br)ccc23)nc(OC)c1CC(F)F [Example 245, 6-bromo-N-[5-(2,2-difluoroethyl)-4,6-dimethoxy-pyrimidin-2-yl]-1H-indole-3-sulfonamide] | 7.57
COc1nc(NS(=O)(=O)c2c[nH]c3c(F)c(Br)ccc23)ncc1CCC#N [Example 240, 6-bromo-N-[5-(2-cyanoethyl)-4-methoxy-pyrimidin-2-yl]-7-fluoro-1H-indole-3-sulfonamide] | 7.32
COc1nc(NS(=O)(=O)c2c[nH]c3nc(Cl)ccc23)nc(OC)c1CCC(F)F [Example 121, 6-chloro-N-[5-(3,3-difluoropropyl)-4,6-dimethoxy-pyrimidin-2-yl]-1H-pyrrolo[2,3-b]pyridine-3-sulfonamide] | 7.80
COc1nc(NS(=O)(=O)c2c[nH]c3nc(C)ccc23)nc(OC)c1OCC#N [Example 284, N-[5-(Cyanomethoxy)-4,6-Dimethoxy-Pyrimidin-2-Yl]-6-Methyl-1H-Pyrrolo[2,3-b]Pyridine-3-Sulfonamide] | 6.56
COc1nc(NS(=O)(=O)c2c[nH]c3nc(Br)ccc23)ncc1CC(F)F [Example 200, 6-bromo-N-[5-(2,2-difluoroethyl)-4-methoxy-pyrimidin-2-yl]-1H-pyrrolo[2,3-b]pyridine-3-sulfonamide] | 7.18
COc1nc(NS(=O)(=O)c2csc3nc(Br)ccc23)ncc1CC(F)F [Example 148, 6-bromo-N-[5-(2,2-difluoroethyl)-4-methoxy-pyrimidin-2-yl]thieno[2,3-b]pyridine-3-sulfonamide] | 7.31
COc1nc(NS(=O)(=O)c2csc3nc(Cl)ccc23)ncc1CC(F)F [Example 139, 6-chloro-N-[5-(2,2-difluoroethyl)-4-methoxy-pyrimidin-2-yl]thieno[2,3-b]pyridine-3-sulfonamide] | 6.97
COc1nc(NS(=O)(=O)c2c[nH]c3c([S+](C)[O-])c(Cl)ccc23)nc(OC)c1CC(F)F (stereo not shown) [Example 279, 6-chloro-N-[5-(2,2-difluoroethyl)-4,6-dimethoxy-pyrimidin-2-yl]-7-methylsulfinyl-1H-indole-3-Sulfonamide] | 7.16
COc1nc(NS(=O)(=O)c2c[nH]c3c(OC)c(Br)ccc23)ncc1CC(F)F [Example 196, 6-bromo-N-[5-(2,2-difluoroethyl)-4-methoxy-pyrimidin-2-yl]-7-methoxy-1H-indole-3-sulfonamide] | 7.80
COc1nc(NS(=O)(=O)c2c[nH]c3c(OCC#N)c(Cl)ccc23)nc(OC)c1CC(F)F [Example 294, 6-Chloro-7-(Cyanomethoxy)-N-[5-(2,2-Difluoroethyl)-4,6-Dimethoxy-Pyrimidin-2-Yl]-1H-Indole-3-Sulfonamide] | 7.62
COc1nc(NS(=O)(=O)c2c[nH]c3c(Br)c(Cl)ccc23)nc(OC)c1CC(F)F [Example 283, 7-Bromo-6-Chloro-N-[5-(2,2-Difluoroethyl)-4,6-Dimethoxy-Pyrimidin-2-Yl]-1H-Indole-3-Sulfonamide] | 7.89
COc1nc(NS(=O)(=O)c2c[nH]c3c([S+](C)[O-])c(Cl)ccc23)nc(OC)c1OCCF (stereo not shown) [Example 278, 6-chloro-N-[5-(2-fluoroethoxy)-4,6-dimethoxy-pyrimidin-2-yl]-7-methylsulfinyl-1h-indole-3-sulfonamide] | 6.64
COc1nc(NS(=O)(=O)c2c[nH]c3c(F)c(Cl)ccc23)nc(OC)c1OCC(F)F [Example 208, 6-chloro-N-[5-(2,2-difluoroethoxy)-4,6-dimethoxy-pyrimidin-2-yl]-7-fluoro-1H-indole-3-sulfonamide] | 7.60

Continued, values first:

pIC50 | SMILES
8.00 | COc1nc(NS(=O)(=O)c2c[nH]c3cc(Br)ccc23)nc(OC)c1CCC#N [Example 93, 6-bromo-N-[5-(2-cyanoethyl)-4,6-dimethoxy-pyrimidin-2-yl]-1H-indole-3-sulfonamide]
7.47 | COc1nc(NS(=O)(=O)c2c[nH]c3cc(C(F)F)ccc23)nc(OC)c1OCC#N [Example 237, N-[5-(cyanomethoxy)-4,6-dimethoxy-pyrimidin-2-yl]-6-(difluoromethyl)-1H-indole-3-sulfonamide]
7.70 | COc1nc(NS(=O)(=O)c2c[nH]c3c(C)c(Cl)ccc23)ncc1CC(F)F [Example 192, 6-chloro-N-[5-(2,2-difluoroethyl)-4-methoxy-pyrimidin-2-yl]-7-methyl-1H-indole-3-sulfonamide]
6.79 | COc1nc(NS(=O)(=O)c2c[nH]c3nc(Cl)ccc23)ncc1OCC(F)F [Example 170, 6-chloro-N-[5-(2,2-difluoroethoxy)-4-methoxy-pyrimidin-2-yl]-1H-pyrrolo[2,3-b]pyridine-3-sulfonamide]
6.69 | COc1nc(NS(=O)(=O)c2c[nH]c3c(C4CC4)c(Cl)ccc23)ncc1CC(F)F [Example 233, 6-chloro-7-cyclopropyl-N-[5-(2,2-difluoroethyl)-4-methoxy-pyrimidin-2-yl]-1H-indole-3-sulfonamide]
7.74 | COc1nc(NS(=O)(=O)c2c[nH]c3cc(Br)ccc23)nc(OC)c1OCC(F)F [Example 92, 6-bromo-N-[5-(2,2-difluoroethoxy)-4,6-dimethoxy-pyrimidin-2-yl]-1H-indole-3-sulfonamide]
6.93 | COc1nc(NS(=O)(=O)c2c[nH]c3cc(Cl)ccc23)nc(SC)c1OC(F)F [Example 86, 6-chloro-N-[5-(difluoromethoxy)-4-methoxy-6-methylsulfanyl-pyrimidin-2-yl]-1H-indole-3-sulfonamide]
6.32 | COc1nc(NS(=O)(=O)c2c[nH]c3cc(Cl)ccc23)ncc1OCCCF [Example 174, 6-chloro-N-[5-(3-fluoropropoxy)-4-methoxy-pyrimidin-2-yl]-1H-indole-3-sulfonamide]
6.80 | COc1nc(NS(=O)(=O)c2c[nH]c3cc(C(F)F)ccc23)ncc1OC(F)(F)CF [Example 100, 6-(difluoromethyl)-N-[4-methoxy-5-(1,1,2-trifluoroethoxy)pyrimidin-2-yl]-1H-indole-3-sulfonamide]
7.72 | COCCc1c(OC)nc(NS(=O)(=O)c2c[nH]c3cc(Cl)ccc23)nc1OC [Example 66, 6-chloro-N-[4,6-dimethoxy-5-(2-methoxyethyl)pyrimidin-2-yl]-1H-indole-3-sulfonamide]
6.32 | CSc1nc(NS(=O)(=O)c2c[nH]c3cc(Cl)ccc23)ncc1OCC(F)F [Example 35, 6-chloro-N-[5-(2,2-difluoroethoxy)-4-methylsulfanyl-pyrimidin-2-yl]-1H-indole-3-sulfonamide]
6.99 | COc1nc(NS(=O)(=O)c2c[nH]c3c(OC4CC4)c(Cl)ccc23)ncc1OCCF [Example 5, 6-chloro-7-(cyclopropoxy)-N-[5-(2-fluoroethoxy)-4-methoxy-pyrimidin-2-yl]-1H-indole-3-sulfonamide]
6.52 | COc1nc(NS(=O)(=O)c2c[nH]c3cc(Cl)ccc23)ncc1C#CC1COC1 [Example 180, 6-chloro-N-[4-methoxy-5-[2-(oxetan-3-yl)ethynyl]pyrimidin-2-yl]-1H-indole-3-sulfonamide]
7.74 | COc1nc(NS(=O)(=O)c2c[nH]c3c(Cl)c(Cl)ccc23)ncc1CC(F)F [Example 210, 6,7-dichloro-N-[5-(2,2-difluoroethyl)-4-methoxy-pyrimidin-2-yl]-1H-indole-3-sulfonamide]
7.54 | COc1nc(NS(=O)(=O)c2c[nH]c3nc(Cl)ccc23)ncc1CCC(F)F [Example 204, 6-chloro-N-[5-(3,3-difluoropropyl)-4-methoxy-pyrimidin-2-yl]-1H-pyrrolo[2,3-b]pyridine-3-sulfonamide]
7.92 | COc1nc(NS(=O)(=O)c2c[nH]c3cc(Cl)ccc23)nc(OC)c1CCC(F)F [Example 62, 6-chloro-N-[5-(3,3-difluoropropyl)-4,6-dimethoxy-pyrimidin-2-yl]-1H-indole-3-sulfonamide]
6.79 | COc1nc(NS(=O)(=O)c2c[nH]c3nc(Cl)ccc23)ncc1OC(F)F [Example 119, 6-chloro-N-[5-(difluoromethoxy)-4-methoxy-pyrimidin-2-yl]-1H-pyrrolo[2,3-b]pyridine-3-sulfonamide]
7.10 | CC#Cc1cnc(NS(=O)(=O)c2c[nH]c3cc(Cl)ccc23)nc1OC [Example 29, 6-chloro-n-(4-methoxy-5-prop-1-ynyl-pyrimidin-2-yl)-1h-indole-3-sulfonamide]
6.89 | COc1nc(NS(=O)(=O)c2c[nH]c3cc(Cl)ccc23)nc(C2CC2)c1CC(F)F [Example 79, 6-chloro-N-[4-cyclopropyl-5-(2,2-difluoroethyl)-6-methoxy-pyrimidin-2-yl]-1H-indole-3-sulfonamide]
7.08 | COc1nc(NS(=O)(=O)c2c[nH]c3cc(F)ccc23)nc(OC)c1OCC(F)F [Example 257, N-[5-(2,2-difluoroethoxy)-4,6-dimethoxy-pyrimidin-2-yl]-6-fluoro-1H-indole-3-sulfonamide]
